In PubChem BioAssay (NCI):
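GI50 is the concentration that inhibits growth by half. TGI: concentration producing complete growth inhibition.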

Assays:
Assay in all cases: inhibition of tumour cell growth, NCI panel, 384-well format
TK-10 renal = test system: TK-10 renal
RXF 393 renal = test system: RXF 393 renal
M14 melanoma = test system: M14 melanoma
UACC-62 melanoma = test system: UACC-62 melanoma
EKVX NSCLC = test system: EKVX NSCLC
OVCAR-5 ovarian = test system: OVCAR-5 ovarian
SW-620 colon = test system: SW-620 colon
NCI-H460 NSCLC = test system: NCI-H460 NSCLC
SN12C renal = test system: SN12C renal
OVCAR-8 ovarian = test system: OVCAR-8 ovarian
CAKI-1 renal = test system: CAKI-1 renal
SF-268 CNS = test system: SF-268 CNS
U251 glioblastoma = test system: U251 glioblastoma
MOLT-4 leukemia = test system: MOLT-4 leukemia
NCI-H226 lung = test system: NCI-H226 lung
DU-145 prostate = test system: DU-145 prostate
RPMI-8226 leukemia = test system: RPMI-8226 leukemia
MALME-3M melanoma = test system: MALME-3M melanoma
NCI-H23 lung = test system: NCI-H23 lung
MDA-MB-435 melanoma = test system: MDA-MB-435 melanoma
SK-OV-3 ovarian = test system: SK-OV-3 ovarian
MDA-MB-231 breast = test system: MDA-MB-231 breast
NCI/ADR-RES ovarian = test system: NCI/ADR-RES ovarian
SK-MEL-28 melanoma = test system: SK-MEL-28 melanoma
NCI-H322M lung = test system: NCI-H322M lung
UO-31 renal = test system: UO-31 renal
MDA-MB-468 breast = test system: MDA-MB-468 breast
BT-549 breast = test system: BT-549 breast
SNB-19 CNS = test system: SNB-19 CNS
COLO 205 colon = test system: COLO 205 colon
HCC-2998 colon = test system: HCC-2998 colon
HOP-62 NSCLC = test system: HOP-62 NSCLC
SNB-75 CNS = test system: SNB-75 CNS
CCRF-CEM leukemia = test system: CCRF-CEM leukemia
K-562 leukemia = test system: K-562 leukemia
UACC-257 melanoma = test system: UACC-257 melanoma
HCT-15 colon = test system: HCT-15 colon
OVCAR-4 ovarian = test system: OVCAR-4 ovarian
HOP-92 NSCLC = test system: HOP-92 NSCLC
786-0 renal = test system: 786-0 renal
ACHN renal = test system: ACHN renal
KM12 colon = test system: KM12 colon
A498 renal = test system: A498 renal
HL-60(TB) leukemia = test system: HL-60(TB) leukemia
LOX IMVI melanoma = test system: LOX IMVI melanoma
SK-MEL-5 melanoma = test system: SK-MEL-5 melanoma
MCF7 breast = test system: MCF7 breast
T-47D breast = test system: T-47D breast
NCI-H522 lung = test system: NCI-H522 lung
A549 NSCLC = test system: A549 NSCLC
OVCAR-3 ovarian = test system: OVCAR-3 ovarian
IGROV1 ovarian = test system: IGROV1 ovarian
PC-3 prostate = test system: PC-3 prostate
HT29 colon = test system: HT29 colon
SF-295 CNS = test system: SF-295 CNS
SF-539 CNS = test system: SF-539 CNS
HS 578T breast = test system: HS 578T breast
HCT-116 colon = test system: HCT-116 colon

CC(C)(F)C[C@H](N[C@@H](c1ccc(-c2ccc(S(C)(=O)=O)cc2)cc1)C(F)(F)F)C(=O)NC1(C#N)CC1
GI50 (TK-10 renal): 33.1 µM | TGI (TK-10 renal): 97.9 µM | GI50 (RXF 393 renal): 18.3 µM | TGI (RXF 393 renal): 35.3 µM | GI50 (M14 melanoma): 71.5 µM | TGI (M14 melanoma): > 100 µM | GI50 (UACC-62 melanoma): 42.1 µM | TGI (UACC-62 melanoma): > 100 µM | GI50 (EKVX NSCLC): 39.2 µM | TGI (EKVX NSCLC): > 100 µM | GI50 (OVCAR-5 ovarian): > 100 µM | TGI (OVCAR-5 ovarian): > 100 µM | GI50 (SW-620 colon): > 100 µM | TGI (SW-620 colon): > 100 µM | GI50 (NCI-H460 NSCLC): 22.4 µM | TGI (NCI-H460 NSCLC): 53.8 µM | GI50 (SN12C renal): 34.9 µM | TGI (SN12C renal): > 100 µM | GI50 (OVCAR-8 ovarian): 20.7 µM | TGI (OVCAR-8 ovarian): 46.1 µM | GI50 (CAKI-1 renal): 30.5 µM | TGI (CAKI-1 renal): > 100 µM | GI50 (SF-268 CNS): 22.1 µM | TGI (SF-268 CNS): 41 µM | GI50 (U251 glioblastoma): 24.7 µM | TGI (U251 glioblastoma): 55.5 µM | GI50 (MOLT-4 leukemia): 41.1 µM | TGI (MOLT-4 leukemia): > 100 µM | GI50 (NCI-H226 lung): 23.5 µM | TGI (NCI-H226 lung): 54.6 µM | GI50 (DU-145 prostate): 46.4 µM | TGI (DU-145 prostate): > 100 µM | GI50 (RPMI-8226 leukemia): 55.9 µM | TGI (RPMI-8226 leukemia): > 100 µM | GI50 (MALME-3M melanoma): 33.7 µM | TGI (MALME-3M melanoma): 86.9 µM | GI50 (NCI-H23 lung): 30.9 µM | TGI (NCI-H23 lung): 83 µM | GI50 (MDA-MB-435 melanoma): 96.2 µM | TGI (MDA-MB-435 melanoma): > 100 µM | GI50 (SK-OV-3 ovarian): 27.3 µM | TGI (SK-OV-3 ovarian): 69.6 µM | GI50 (MDA-MB-231 breast): 39.6 µM | TGI (MDA-MB-231 breast): > 100 µM | GI50 (NCI/ADR-RES ovarian): 88.1 µM | TGI (NCI/ADR-RES ovarian): > 100 µM | GI50 (SK-MEL-28 melanoma): 40.9 µM | TGI (SK-MEL-28 melanoma): > 100 µM | GI50 (NCI-H322M lung): 49.8 µM | TGI (NCI-H322M lung): > 100 µM | GI50 (UO-31 renal): > 100 µM | TGI (UO-31 renal): > 100 µM | GI50 (MDA-MB-468 breast): 39.4 µM | TGI (MDA-MB-468 breast): > 100 µM | GI50 (BT-549 breast): 39.7 µM | TGI (BT-549 breast): > 100 µM | GI50 (SNB-19 CNS): 35.7 µM | TGI (SNB-19 CNS): 92.4 µM | GI50 (COLO 205 colon): > 100 µM | TGI (COLO 205 colon): > 100 µM | GI50 (HCC-2998 colon): > 100 µM | TGI (HCC-2998 colon): > 100 µM | GI50 (HOP-62 NSCLC): 22.8 µM | TGI (HOP-62 NSCLC): 63 µM | GI50 (SNB-75 CNS): 20.5 µM | TGI (SNB-75 CNS): 37.3 µM | GI50 (CCRF-CEM leukemia): > 100 µM | TGI (CCRF-CEM leukemia): > 100 µM | GI50 (K-562 leukemia): > 100 µM | TGI (K-562 leukemia): > 100 µM | GI50 (UACC-257 melanoma): 26.7 µM | TGI (UACC-257 melanoma): 55.4 µM | GI50 (HCT-15 colon): > 100 µM | TGI (HCT-15 colon): > 100 µM | GI50 (OVCAR-4 ovarian): 19.8 µM | TGI (OVCAR-4 ovarian): 38 µM | GI50 (HOP-92 NSCLC): 11.2 µM | TGI (HOP-92 NSCLC): 28.9 µM | GI50 ([…]-0 renal): 21.9 µM | TGI (786-0 renal): 53.5 µM | GI50 (ACHN renal): > 100 µM | TGI (ACHN renal): > 100 µM | GI50 (KM12 colon): 43.6 µM | TGI (KM12 colon): > 100 µM | GI50 (A498 renal): 21.3 µM | TGI (A498 renal): 46.7 µM | GI50 (HL-60(TB) leukemia): > 100 µM | TGI (HL-60(TB) leukemia): > 100 µM | GI50 (LOX IMVI melanoma): 59.3 µM | TGI (LOX IMVI melanoma): > 100 µM | GI50 (SK-MEL-5 melanoma): 23 µM | TGI (SK-MEL-5 melanoma): 55.8 µM | GI50 (MCF7 breast): 27.3 µM | TGI (MCF7 breast): 91.1 µM | GI50 (T-47D breast): 36.6 µM | TGI (T-47D breast): > 100 µM | GI50 (NCI-H522 lung): 21.4 µM | TGI (NCI-H522 lung): 40.2 µM | GI50 (A549 NSCLC): 34.9 µM | TGI (A549 NSCLC): > 100 µM | GI50 (OVCAR-3 ovarian): 31.1 µM | TGI (OVCAR-3 ovarian): 76.7 µM | GI50 (IGROV1 ovarian): > 100 µM | TGI (IGROV1 ovarian): > 100 µM | GI50 (PC-3 prostate): 41.3 µM | TGI (PC-3 prostate): > 100 µM | GI50 (HT29 colon): > 100 µM | TGI (HT29 colon): > 100 µM | GI50 (SF-295 CNS): 22.9 µM | TGI (SF-295 CNS): 63.4 µM | GI50 (SF-539 CNS): 23.1 µM | TGI (SF-539 CNS): 44.1 µM | GI50 (HS 578T breast): 21.2 µM | TGI (HS 578T breast): 45.3 µM | GI50 (HCT-116 colon): > 100 µM | TGI (HCT-116 colon): > 100 µM
